Data taken from patent US20160113895A1, “Novel Use of Adapalene in Treating Esophageal Cancer and Gastrointestinal Stromal Tumor” (Biodelight Biotech Inc., priority 2013, published 2016).

How the values were obtained:
A549 [1] = assay: 2D cell proliferation assay (Alamar Blue), A549; assay type: cell-based, human; details: Homo sapiens; 2D, A549, 72 h; read-out: IC50
Excerpt: (§1) Nsl-8 was subjected to 2D cell proliferation assays using four NSCLC cell lines (A549 (human adenocarcinomic alveolar basal epithelial cells with k-ras gene mutation), H1299 (human non-small cell lung carcinoma cell line with p53 mutation), H460 (human non-small cell lung carcinoma cell line with k-ras gene mutation), and HCC827 (human NSCLC cells with EGFR mutation of deletion from E746 to A750)) and the results were presented in Table 2. There were eight concentrations used for each drug for determining its IC50. […]. Actinomycin D was a chemotherapeutic drug simply used as a quality control for all the experiments.
(§2) In the 2D cell proliferation assay, cells were cultured in DMEM containing 10% FCS and Penicillin/Streptomycin. For the assays, cells were seeded in 150 μL medium on a 96-well cell culture plate and incubated at 37° C. overnight before the compounds were added. Compounds were prepared as predilution which was 16 fold concentrated to the final assay concentration. A day after cell seeding, 10 μL of prediluted compounds was added to the cells (1:16 dilution). Treatment of cells with 0.1% DMSO or 1% DMSO (for the two top concentrations of nsl-8) and 1.0E-05 M Staurosporine was served as high control (100% viability) and low control (0% viability), respectively. Measurement of the impact of compounds on cell viability was performed as follows: 5000 cells (A549 and HCC827) or 2500 cells (H1299 and H460) were seeded in the inner wells of 96-well-plates in 150 μL complete medium. Next day, compounds were added to the medium to reach the final concentration and then incubated at 37° C. in 5% or 10% CO2 depending on the medium for 72 h. Subsequently 10 μL Alamar Blue reagent was added and fluorescence at 590 nm was measured after 5 h incubation at 37° C. in 5% CO2 using a fluorometer.
(§3) Raw data were converted into percent cell viability relative to high control (solvent 0.1% DMSO or 1% DMSO for the two top concentrations of drug nsl-8) and low control (1.0E-05 M Staurosporine), which were set to 100% and 0%, respectively.

H1299 [2] = assay: 2D cell proliferation assay (Alamar Blue), H1299; assay type: cell-based, human; details: Homo sapiens, NCI-H1299; 2D, H1299, 72 h; read-out: IC50
Excerpt: as §1, §2, §3

[3] = system: four NSCLC cell lines (A549, H1299, H460, HCC827); assay: 2D cell proliferation assay, summary over the NSCLC cell lines; assay type: cell-based; details: Homo sapiens, span over the four NSCLC cell lines
Experimental: There were eight concentrations used for each drug for determining its IC50. […] Actinomycin D was a chemotherapeutic drug simply used as a quality control for all the experiments.
as §2, with “Compounds were prepared as predilution which was 16 fold concentrated to the final assay concentration.” left out, “h.” for “h. Subsequently 10 μL Alamar Blue reagent was added and fluorescence at 590 nm was measured after 5 h incubation at 37° C. in 5% CO2 using a fluorometer.”
as §3

A549 [4] = assay: 3D cell proliferation assay (soft agar), A549; assay type: cell-based, human; details: Homo sapiens, 3D soft agar
Experimental: (§4) Drug nsl-8 was further subjected to a 3D cell proliferation assay for assessing its potential in inhibiting the growth of NSCLC tumors. The same four NSCLC cell lines used in 2D proliferation assays were grown in soft agar and the drug was added after the agar has solidified. The drug added cells were then incubated several days until colonies have formed in the solvent control. Subsequently, Alamar Blue which was a cell viability reagent was added and the corresponding fluorescence released was measured as an indirect quantification of colony growth in soft agar.
(§5) For each cell line, some 96 well culture plates were prepared. 100 μL of the soft agar bottom layer (0.6% final concentration in complete medium) was poured and left to solidify. 50 μL of the soft agar top layer (0.4% final concentration) containing the corresponding cells and cell number were then added on top, solidified and such 96 well plates were incubated overnight at 37° C. in 10% CO2. Next day, drugs were added at indicated final concentrations into the inner wells of the plate. Subsequently, the assays were incubated in cell culture incubators for the indicated period of time. Finally, the assays were developed using Alamar Blue and upon 3-5 h of incubation at 37 ° C. fluorescence intensity was determined (excitation: 560 nm, emission: 590 nm). […]

H1299 [5] = assay: 3D cell proliferation assay (soft agar), H1299; assay type: cell-based, human; details: Homo sapiens, NCI-H1299, 3D soft agar
Experimental: as §4, §5

- IC50 (A549 [1]): 5.4 µM
- IC50 (H1299 [2]): 6.5 µM
- IC50 [3]: 2 to 11 µM
- IC50 (A549 [4]): 0.99 µM
- IC50 (H1299 [5]): 13 µM
SMILES: COc1ccc(-c2ccc3cc(C(=O)O)ccc3c2)cc1C12CC3CC(CC(C3)C1)C2 [nsl-8, 6-[3-(1-adamantyl)-4-methoxyphenyl]-2-naphthalenecarboxylic acid]
